Laboratory results as given in a compilation of properties of binary mixtures (doi:10.1016/j.jct.2009.06.023).

Test: xn = mol fraction of the nth substance listed
Conditions: 101 kPa

CCCC[n+]1ccn(C)c1.O=[N+]([O-])[O-] + CCCCO
viscosity [mPa·s]
Conditions	x2 = 0.129	x2 = 0.26	x2 = 0.361	x2 = 0.456	x2 = 0.565	x2 = 0.65	x2 = 0.753	x2 = 0.848
283.15 K	232	125	75.5	–	29	19.86	11.42	7.82
288.15 K	170.6	–	58.8	38.34	–	16.11	9.74	6.78
293.15 K	126.9	68.4	46.54	31.1	–	13.67	8.41	–
298.15 K	–	53.94	37.64	–	–	11.74	7.28	5.12
303.15 K	70.8	–	30.76	21.48	–	10.17	6.35	4.52
308.15 K	–	–	25.6	18.23	12.37	–	–	3.98
313.15 K	45.28	29.24	–	15.59	–	–	–	3.56
318.15 K	37.11	–	18.41	13.52	–	6.94	4.38	3.19
323.15 K	30.72	20.83	–	11.81	8.33	6.15	–	2.87
328.15 K	25.86	17.89	13.75	10.37	7.37	5.52	3.5	2.6
333.15 K	21.95	15.46	–	9.18	–	4.93	3.17	2.37

CCCC[n+]1ccn(C)c1.O=[N+]([O-])[O-] + CCO
viscosity [mPa·s]
Conditions	x2 = 0.11	x2 = 0.254	x2 = 0.352	x2 = 0.447	x2 = 0.556	x2 = 0.663	x2 = 0.748	x2 = 0.852
283.15 K	260	120.4	66	–	21.24	10.88	7.45	3.9
288.15 K	190	90.7	–	28.43	17.96	–	–	3.47
293.15 K	139.3	–	41.09	23.18	15.21	8.84	–	3.08
298.15 K	–	53.62	32.83	19.16	13.06	–	–	2.75
303.15 K	86.8	43.08	26.28	–	11.34	6.71	4.28	–
308.15 K	–	35.32	–	13.73	9.83	–	3.76	2.31
313.15 K	–	–	17.78	11.88	9.05	5	3.38	2.13
318.15 K	38.81	–	15.48	10.26	8.02	4.49	3.08	–
323.15 K	32.11	20.84	14.06	8.91	6.96	4.04	2.81	1.75
328.15 K	26.9	17.9	12.51	–	6.08	3.7	2.57	1.65
333.15 K	22.91	–	10.88	7.7	5.49	3.39	2.38	1.59

CCCC[n+]1ccn(C)c1.O=[N+]([O-])[O-] + CCCO
viscosity [mPa·s]
Conditions	x2 = 0.121	x2 = 0.257	x2 = 0.364	x2 = 0.471	x2 = 0.554	x2 = 0.673	x2 = 0.755	x2 = 0.857
283.15 K	243	125.8	72.5	42.71	27.88	15.61	10.26	6.16
288.15 K	–	95.7	56.76	–	23	13.2	8.83	5.29
293.15 K	130.9	68.2	45.1	28.35	19.19	–	7.6	4.64
298.15 K	99.8	53.67	36.43	23.48	16.29	–	6.56	4.05
303.15 K	74	43.04	29.92	19.71	13.94	8.54	5.77	3.59
308.15 K	58.48	35.02	24.93	–	12.03	7.43	5.04	3.21
313.15 K	47.07	28.93	–	14.44	10.5	6.49	4.49	2.87
318.15 K	38.59	24.21	17.89	–	–	5.78	3.97	2.59
323.15 K	–	20.58	15.41	–	8.16	5.09	3.58	2.35
328.15 K	26.75	17.65	13.41	–	7.2	4.58	–	–
333.15 K	22.73	15.31	11.77	8.61	–	4.14	2.94	1.96
